Consider one compound from PMC2062954, “Microencapsulated octreotide pamoate in advanced gastrointestinal and pancreatic cancer: a phase I study” (British Journal of Cancer, 1998).

The data set in a line: Plasma octreotide levels by RIA. The data set is classed as in vivo, human.

Description: Norway Summary Fourteen patients suffering from advanced colorectal (n = 7), pancreatic (n = 4) or gastric (n = 3) carcinomas received treatment with microencapsulated octreotide pamoate 90 mg i.m. every 4 weeks (n = 4), 160 mg i.m. every 4 weeks (n = 4) or 160 mg i.m. every 2 weeks (n = 6). […] In this study we evaluate the tolerability. clinical effects, pharmacokinetics and effects on plasma IGF-I and -II of a new microencapsulated formulation of octreotide pamoate in patients suffering from gastrointestinal and pancreatic carci- nomas. […] Thus. apart from deter- mining plasma IGF-I and -HI together with IGFBP-1 and -3 with radioimmunoassay (RIA). we measured IGFBPs using Western ligand blotting and the functional status of IGFBP-3 using immunoblotting. […] PATIENTS AND METHODS Patients Fourteen patients (eight men and six A-omen) with progressive locally advanced and/or metastatic adenocarcinomas of abdominal origin were studied (Table 1). Any other svstemic anti-cancer therapy had been terminated at least 4 weeks before inclusion in the study.

`C[C@@H](O)[C@@H]1NC(=O)[C@H](CCCCN)NC(=O)[C@@H](Cc2c[nH]c3ccccc23)NC(=O)[C@H](Cc2ccccc2)NC(=O)[C@@H](NC(=O)[C@H](N)Cc2ccccc2)CSSC[C@@H](C(=O)N[C@H](CO)[C@@H](C)O)NC1=O` [octreotide]: where the note is “all cohorts, i.m. depot, range, generally two to five times higher, data not shown”, the “ratio of peak octreotide level at first day of injection to plasma level just before the next injection” value is reported as 2.2-9.9. The “lowest plasma level of octreotide observed at any time during treatment” value (individual patients, all cohorts, RIA) was found to be 3.4 ng/mL. Besides, for the setting “one patient in cohort 3 (160 mg i.m. every 2 weeks), long-term treatment > 6 months, at day 13, subsequent gradual decline”, the “highest plasma octreotide level” value was determined as 98.9 ng/mL.
